The results in this text go back to patent publication US20090306386A1, “Plant Extract Obtained by an Extraction Method by Means of Solvents of Plant Origin” (priority 2005, published 2009).

SMILES strings stand for the structures.

The test deals with xanthine/xanthine oxidase. Kind of test: antioxidant activity, xanthine/xanthine oxidase test. It counts as biochemical. The settings on record: modified method of Rice Evans et al. and Masaki et al., n=10. The text has this:
The antioxidant activity of the turmeric extract obtained with solvent No. 2 (d-limonene) were studied using the xanthine/xanthine oxidase test according to the modified method of Rice Evans et al. (Techniques in free radical research, 1991, Elsevier, Paris) and Masaki et al. (Antioxygen scavenging activity of plant extracts, Biol. Pharm. Bull., 1995, 18 (1), 162-166).

`Oc1ncnc2[nH]ncc12` [allopurinol]: the “antioxidant activity IC50” value was 0.06%.
